Test system: NOMO1
Assay: cell viability relative to DMSO control; higher = less cytotoxic
Conditions: 48 h
In short: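 Before seeding, each leukemia line was adapted for at least four passages in each medium. NOMO1 or SEM cells (500 cells/well) and P12-Ichikawa cells (1000 cells/well) went into 1536-well plates at 5 μl, then received library compounds in DMSO by pin dosing across 11 threefold concentrations, 47 μM to 0.79 nM. Readout was CellTiter-Glo One luminescence after 48 h at 37°C, and viability is given as a per-plate percentage of DMSO wells, with cell-free wells as background.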

[1] = HPLM + 10% dialyzed FBS, 0.000781 µM
[2] = HPLM + 10% dialyzed FBS, 0.00234 µM
[3] = HPLM + 10% dialyzed FBS, 0.00702 µM
[4] = HPLM + 10% dialyzed FBS, 0.0211 µM
[5] = HPLM + 10% dialyzed FBS, 0.0632 µM
[6] = HPLM + 10% dialyzed FBS, 0.19 µM
[7] = HPLM + 10% dialyzed FBS, 0.569 µM
[8] = HPLM + 10% dialyzed FBS, 1.71 µM
[9] = HPLM + 10% dialyzed FBS, 5.12 µM
[10] = HPLM + 10% dialyzed FBS, 15.4 µM
[11] = HPLM + 10% dialyzed FBS, 46.1 µM
[12] = RPMI 5 mM glucose + 10% FBS, 0.000781 µM
[13] = RPMI 5 mM glucose + 10% FBS, 0.00234 µM
[14] = RPMI 5 mM glucose + 10% FBS, 0.00702 µM
[15] = RPMI 5 mM glucose + 10% FBS, 0.0211 µM
[16] = RPMI 5 mM glucose + 10% FBS, 0.0632 µM
[17] = RPMI 5 mM glucose + 10% FBS, 0.19 µM
[18] = RPMI 5 mM glucose + 10% FBS, 0.569 µM
[19] = RPMI 5 mM glucose + 10% FBS, 1.71 µM
[20] = RPMI 5 mM glucose + 10% FBS, 5.12 µM
[21] = RPMI 5 mM glucose + 10% FBS, 15.4 µM
[22] = RPMI 5 mM glucose + 10% FBS, 46.1 µM
[23] = RPMI 5 mM glucose + 10% dialyzed FBS, 0.000781 µM
[24] = RPMI 5 mM glucose + 10% dialyzed FBS, 0.00234 µM
[25] = RPMI 5 mM glucose + 10% dialyzed FBS, 0.00702 µM
[26] = RPMI 5 mM glucose + 10% dialyzed FBS, 0.0211 µM
[27] = RPMI 5 mM glucose + 10% dialyzed FBS, 0.0632 µM
[28] = RPMI 5 mM glucose + 10% dialyzed FBS, 0.19 µM
[29] = RPMI 5 mM glucose + 10% dialyzed FBS, 0.569 µM
[30] = RPMI 5 mM glucose + 10% dialyzed FBS, 1.71 µM
[31] = RPMI 5 mM glucose + 10% dialyzed FBS, 5.12 µM
[32] = RPMI 5 mM glucose + 10% dialyzed FBS, 15.4 µM
[33] = RPMI 5 mM glucose + 10% dialyzed FBS, 46.1 µM

Row | SMILES | cell viability [1] [%] | cell viability [2] [%] | cell viability [3] [%] | cell viability [4] [%] | cell viability [5] [%] | cell viability [6] [%] | cell viability [7] [%] | cell viability [8] [%] | cell viability [9] [%] | cell viability [10] [%] | cell viability [11] [%] | cell viability [12] [%] | cell viability [13] [%] | cell viability [14] [%] | cell viability [15] [%] | cell viability [16] [%] | cell viability [17] [%] | cell viability [18] [%] | cell viability [19] [%] | cell viability [20] [%] | cell viability [21] [%] | cell viability [22] [%] | cell viability [23] [%] | cell viability [24] [%] | cell viability [25] [%] | cell viability [26] [%] | cell viability [27] [%] | cell viability [28] [%] | cell viability [29] [%] | cell viability [30] [%] | cell viability [31] [%] | cell viability [32] [%] | cell viability [33] [%]
1 | O=C(CS(=O)Cc1ccco1)NC/C=C\COc1cc(CN2CCCCC2)ccn1 (configuration not stated) | 85 | 105 | 101 | 102 | 93.3 | 113 | 93.8 | 98.9 | 89 | 94.1 | 92.9 | 89.7 | 87.5 | 97.2 | 95.7 | 87.1 | 98.2 | 87.8 | 89.3 | 94.8 | 93.3 | 92.8 | 90 | 103 | 95 | 108 | 105 | 103 | 108 | 97.4 | 90.9 | 105 | 99.4
2 | N#Cc1ccc(Oc2ccc3c(c2)COB3O)cc1 |  |  |  |  |  |  |  |  |  |  |  | 122 | 132 | 119 | 120 | 150 | 137 | 144 | 126 | 133 | 129 | 57.3 |  |  |  |  |  |  |  |  |  |  | 
3 | C=C1C(=O)OC(CCCCCCCC)C1C(=O)O (configuration not stated) | 107 | 125 | 123 | 135 | 135 | 139 | 130 | 125 | 104 | 136 | 118 | 113 | 114 | 112 | 122 | 131 | 127 | 119 | 132 | 129 | 127 | 124 | 109 | 123 | 113 | 130 | 135 | 136 | 125 | 120 | 121 | 129 | 120
4 | COc1cc(Nc2c(C#N)cnc3cc(OCCCN4CCN(C)CC4)c(OC)cc23)c(Cl)cc1Cl | 123 | 121 | 118 | 111 | 116 | 105 | 121 | 83.6 | 52.1 | 9.63 | 7.18 | 109 | 115 | 126 | 119 | 126 | 118 | 112 | 106 | 82.4 | 13.7 | 7.22 | 103 | 105 | 112 | 113 | 116 | 114 | 112 | 120 | 85.8 | 26 | 10.6
5 | NC(=O)[C@H]1CCS[C@@H]2C[C@]3(CCCN3C(=O)Cc3ccc(NC(=O)COc4ccc(Cl)cc4Cl)cc3)C(=O)N12 | 111 | 138 | 123 | 134 | 139 | 123 | 102 | 36.8 | 39.9 | 42.3 | 52.3 | 107 | 129 | 121 | 131 | 138 | 131 | 119 | 103 | 26.1 | 26.6 | 38.9 |  |  |  |  |  |  |  |  |  |  | 
6 | CCOc1cc2ncc(C#N)c(Nc3ccc(F)c(Cl)c3)c2cc1NC(=O)/C=C/CN(C)C | 120 | 133 | 111 | 114 | 127 | 84.9 | 80.9 | 57 | 50.8 | 42.7 | 4.8 | 118 | 128 | 116 | 124 | 123 | 118 | 102 | 85.6 | 66.2 | 76.3 | 10.4 |  |  |  |  |  |  |  |  |  |  | 
7 | COc1cccc2c1C(=O)c1c(O)c3c(c(O)c1C2=O)C[C@@](O)(C(=O)CO)C[C@@H]3O[C@H]1C[C@H](N)[C@H](O[C@H]2CCCCO2)[C@H](C)O1 | 124 | 106 | 100 | 135 | 117 | 116 | 117 | 108 | 43 | 113 | 63 | 120 | 128 | 122 | 128 | 114 | 128 | 123 | 125 | 22.9 | 124 | 101 | 119 | 116 | 121 | 115 | 104 | 124 | 106 | 123 | 41.7 | 110 | 102
8 | CCC[S+](=O)([O-])Nc1ccc(F)c(C(=O)c2c[nH]c3ncc(Cl)cc23)c1F |  |  |  |  |  |  |  |  |  |  |  | 112 | 110 | 115 | 117 | 120 | 121 | 114 | 108 | 107 | 62.6 | 43.8 | 116 | 119 | 117 | 100 | 107 | 128 | 119 | 122 | 123 | 62.3 | 42.9
9 | COc1cc([C@@H](CC(=O)O)c2ccc(C)c(CN3C[C@@H](C)Oc4ccccc4[S+]3(=O)[O-])c2)cc2nnn(C)c12 | 123 | 120 | 111 | 121 | 110 | 118 | 96.8 | 119 | 66.6 | 30.3 | 26.5 | 114 | 117 | 117 | 98.7 | 97.1 | 102 | 104 | 99.3 | 92.4 | 90.3 | 91.1 | 102 | 118 | 116 | 104 | 113 | 99.5 | 100 | 101 | 86.2 | 79.6 | 75.4

From the supplement of paper PMC11451515
